Measured values as given in patent US20230143604A1, “QW DOSING OF GIP RECEPTOR AGONIST PEPTIDE COMPOUNDS AND USES THEREOF” (TAKEDA PHARMACEUTICAL COMPANY LIMITED, priority 2020, published 2023).
Starred links: 1 amine or outer side, 2 acyl side, 3 side chain; linkers in the order of their positions; H or OH if unused. Non-standard residues stand in square brackets, D forms with d. Residues, ends and D or L forms follow the SMILES beside them. Groups on a side chain read outwards from the residue. *: point of attachment. C18 diacid = O=C(O)CCCCCCCCCCCCCCCCC(=O)*; C17 diacid = O=C(O)CCCCCCCCCCCCCCCC(=O)*; γGlu = O=C(O)[C@H](CCC(=O)[*:2])N[*:1]; NMeY = CN[C@@H](Cc1ccc(O)cc1)C(=O)O; AEEA = NCCOCCOCC(=O)O; Aib = CC(C)(N)C(=O)O

Assay: Solubility in phosphate buffer pH 7.4
Conditions: pH 7.4, aqueous buffer
Procedure, shortened: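 3 mg of peptide treated with 100 μL portions of 200 mM phosphate buffer pH 7.4, sonicating/vortexing up to 1 min, with further buffer added until fully dissolved. Solubility then quantified by HPLC.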

[1] = pH 7.4 Phosphate Buffer - Solubility, 200 mM Phosphate buffer pH 7.4

SMILES	solubility [1] [µg/mL]	solubility [µg/mL]
CC[C@H](C)[C@H](NC(=O)[C@H](CO)NC(=O)[C@H](Cc1ccc(O)cc1)NC(=O)[C@H](CC(=O)O)NC(=O)[C@H](CO)NC(=O)[C@@H](NC(=O)[C@H](Cc1ccccc1)NC(=O)[C@@H](NC(=O)CNC(=O)[C@H](CCC(=O)O)NC(=O)C(C)(C)NC(=O)[C@H](Cc1ccc(O)cc1)NC)[C@@H](C)O)[C@@H](C)CC)C(=O)N[C@@H](C)C(=O)N[C@@H](CC(C)C)C(=O)N[C@@H](CC(=O)O)C(=O)N[C@@H](CCCNC(=N)N)C(=O)N[C@@H](CCCCNC(=O)COCCOCCNC(=O)COCCOCCNC(=O)CC[C@H](NC(=O)CCCCCCCCCCCCCCCC(=O)O)C(=O)O)C(=O)N[C@@H](C)C(=O)N[C@@H](CCC(N)=O)C(=O)NC(C)(C)C(=O)N[C@@H](CC(N)=O)C(=O)N[C@@H](Cc1ccccc1)C(=O)N[C@H](C(=O)N[C@@H](CC(N)=O)C(=O)N[C@@H](Cc1c[nH]c2ccccc12)C(=O)N[C@@H](CC(C)C)C(=O)N[C@@H](CC(C)C)C(=O)N[C@@H](C)C(=O)N[C@@H](CCC(N)=O)C(=O)N[C@@H](CCCNC(=N)N)C(=O)N1CCC[C@H]1C(=O)N[C@@H](CO)C(=O)N[C@@H](CO)C(=O)NCC(=O)N[C@@H](C)C(=O)N1CCC[C@H]1C(=O)N1CCC[C@H]1C(=O)N1CCC[C@H]1C(=O)N[C@@H](CO)C(N)=O)C(C)C [Compound 266] (H-[NMeY][Aib]EGTFISDYSIALDRK([AEEA-AEEA-γGlu-C17 diacid])AQ[Aib]NFVNWLLAQRPSSGAPPPS-NH2)	< 6000	
CC[C@H](C)[C@H](NC(=O)[C@H](Cc1ccccc1)NC(=O)[C@@H](NC(=O)CNC(=O)[C@H](CCC(=O)O)NC(=O)C(C)(C)NC(=O)[C@H](Cc1ccc(O)cc1)NC)[C@@H](C)O)C(=O)N[C@@H](CO)C(=O)N[C@@H](CC(=O)O)C(=O)N[C@@H](Cc1ccc(O)cc1)C(=O)N[C@@H](CO)C(=O)N[C@H](C(=O)NC(C)(C)C(=O)N[C@@H](CC(C)C)C(=O)N[C@@H](CC(=O)O)C(=O)N[C@@H](CCCNC(=N)N)C(=O)NC(C)(C)C(=O)N[C@@H](C)C(=O)N[C@@H](CCC(N)=O)C(=O)NC(C)(C)C(=O)N[C@@H](CCCCNC(=O)COCCOCCNC(=O)COCCOCCNC(=O)CC[C@H](NC(=O)CC[C@H](NC(=O)CCCCCCCCCCCCCCCCC(=O)O)C(=O)O)C(=O)O)C(=O)N[C@@H](Cc1ccccc1)C(=O)N[C@H](C(=O)N[C@@H](CC(N)=O)C(=O)N[C@@H](Cc1c[nH]c2ccccc12)C(=O)N[C@@H](CC(C)C)C(=O)N[C@@H](CC(C)C)C(=O)N[C@@H](C)C(=O)N[C@@H](CCC(N)=O)C(=O)N[C@@H](CCCNC(=N)N)C(N)=O)C(C)C)[C@@H](C)CC [Compound 267] (H-[NMeY][Aib]EGTFISDYSI[Aib]LDR[Aib]AQ[Aib]K([AEEA-AEEA-γGlu-γGlu-C18 diacid])FVNWLLAQR-NH2)		< 6000
CC[C@H](C)[C@H](NC(=O)[C@H](CO)NC(=O)[C@H](Cc1ccc(O)cc1)NC(=O)[C@H](CC(=O)O)NC(=O)[C@H](CO)NC(=O)[C@@H](NC(=O)[C@H](Cc1ccccc1)NC(=O)[C@@H](NC(=O)CNC(=O)[C@H](CCC(=O)O)NC(=O)C(C)(C)NC(=O)[C@H](Cc1ccc(O)cc1)NC)[C@@H](C)O)[C@@H](C)CC)C(=O)N[C@@H](C)C(=O)N[C@@H](CC(C)C)C(=O)N[C@@H](CC(=O)O)C(=O)N[C@@H](CCCNC(=N)N)C(=O)NC(C)(C)C(=O)N[C@@H](CCCCNC(=O)COCCOCCNC(=O)COCCOCCNC(=O)CC[C@H](NC(=O)CCCCCCCCCCCCCCCC(=O)O)C(=O)O)C(=O)N[C@@H](CCC(N)=O)C(=O)NC(C)(C)C(=O)N[C@@H](CC(N)=O)C(=O)N[C@@H](Cc1ccccc1)C(=O)N[C@H](C(=O)N[C@@H](CC(N)=O)C(=O)N[C@@H](Cc1c[nH]c2ccccc12)C(=O)N[C@@H](CC(C)C)C(=O)N[C@@H](CC(C)C)C(=O)N[C@@H](C)C(=O)N[C@@H](CCC(N)=O)C(=O)N[C@@H](CO)C(=O)N1CCC[C@H]1C(=O)N[C@@H](CO)C(=O)N[C@@H](CO)C(=O)NCC(=O)N[C@@H](C)C(=O)N1CCC[C@H]1C(=O)N1CCC[C@H]1C(=O)N1CCC[C@H]1C(=O)N[C@@H](CO)C(N)=O)C(C)C [Compound 268] (H-[NMeY][Aib]EGTFISDYSIALDR[Aib]K([AEEA-AEEA-γGlu-C17 diacid])Q[Aib]NFVNWLLAQSPSSGAPPPS-NH2)	≥ 10000	
CC[C@H](C)[C@H](NC(=O)[C@H](CO)NC(=O)[C@H](Cc1ccc(O)cc1)NC(=O)[C@H](CC(=O)O)NC(=O)[C@H](CO)NC(=O)[C@@H](NC(=O)[C@H](Cc1ccccc1)NC(=O)[C@@H](NC(=O)CNC(=O)[C@H](CCC(=O)O)NC(=O)C(C)(C)NC(=O)[C@H](Cc1ccc(O)cc1)NC)[C@@H](C)O)[C@@H](C)CC)C(=O)N[C@@H](C)C(=O)N[C@@H](CC(C)C)C(=O)N[C@@H](CC(=O)O)C(=O)N[C@@H](CCCNC(=N)N)C(=O)NC(C)(C)C(=O)N[C@@H](C)C(=O)N[C@@H](CCC(N)=O)C(=O)NC(C)(C)C(=O)N[C@@H](CCCCNC(=O)COCCOCCNC(=O)COCCOCCNC(=O)CC[C@H](NC(=O)CC[C@H](NC(=O)CCCCCCCCCCCCCCCCC(=O)O)C(=O)O)C(=O)O)C(=O)N[C@@H](Cc1ccccc1)C(=O)N[C@H](C(=O)N[C@@H](CC(N)=O)C(=O)N[C@@H](Cc1c[nH]c2ccccc12)C(=O)N[C@@H](CC(C)C)C(=O)N[C@@H](CC(C)C)C(=O)N[C@@H](C)C(=O)N[C@@H](CCC(N)=O)C(=O)N[C@@H](CCCNC(=N)N)C(N)=O)C(C)C [Compound 269] (H-[NMeY][Aib]EGTFISDYSIALDR[Aib]AQ[Aib]K([AEEA-AEEA-γGlu-γGlu-C18 diacid])FVNWLLAQR-NH2)		≥ 7500
CC[C@H](C)[C@H](NC(=O)[C@H](Cc1ccccc1)NC(=O)[C@@H](NC(=O)CNC(=O)[C@H](CCC(=O)O)NC(=O)C(C)(C)NC(=O)[C@H](Cc1ccc(O)cc1)NC)[C@@H](C)O)C(=O)N[C@@H](CO)C(=O)N[C@@H](CC(=O)O)C(=O)N[C@@H](Cc1ccc(O)cc1)C(=O)N[C@@H](CO)C(=O)N[C@H](C(=O)NC(C)(C)C(=O)N[C@@H](CC(C)C)C(=O)N[C@@H](CC(=O)O)C(=O)N[C@@H](CCCNC(=N)N)C(=O)N[C@@H](CCCCNC(=O)COCCOCCNC(=O)COCCOCCNC(=O)CC[C@H](NC(=O)CC[C@H](NC(=O)CCCCCCCCCCCCCCCC(=O)O)C(=O)O)C(=O)O)C(=O)N[C@@H](C)C(=O)N[C@@H](CCC(N)=O)C(=O)NC(C)(C)C(=O)N[C@@H](CC(N)=O)C(=O)N[C@@H](Cc1ccccc1)C(=O)N[C@H](C(=O)N[C@@H](CC(N)=O)C(=O)N[C@@H](Cc1c[nH]c2ccccc12)C(=O)N[C@@H](CC(C)C)C(=O)N[C@@H](CC(C)C)C(=O)N[C@@H](C)C(=O)N[C@@H](CCC(N)=O)C(=O)N[C@@H](CO)C(=O)N1CCC[C@H]1C(=O)N[C@@H](CO)C(=O)N[C@@H](CO)C(=O)NCC(=O)N[C@@H](C)C(=O)N1CCC[C@H]1C(=O)N1CCC[C@H]1C(=O)N1CCC[C@H]1C(=O)N[C@@H](CO)C(N)=O)C(C)C)[C@@H](C)CC [Compound 270] (H-[NMeY][Aib]EGTFISDYSI[Aib]LDRK([AEEA-AEEA-γGlu-γGlu-C17 diacid])AQ[Aib]NFVNWLLAQSPSSGAPPPS-NH2)	≥ 7500	
